Assay results from publication PMC3961306, “Comparison of the Cancer Gene Targeting and Biochemical Selectivities of All Targeted Kinase Inhibitors Approved for Clinical Use” (PLoS ONE, 2014).

Tests used:
Test in all cases: Kinase profiling in a biochemical assay panel (mobility shift assays and ELISA), %-inhibition at 1 μM; selectivity entropy
[1] = biological target: T1, panel of more than 300 wild-type and mutant kinases (313 kinase panel) (Homo sapiens, UniProt P29323)
T1 sequence (P29323 19-1055): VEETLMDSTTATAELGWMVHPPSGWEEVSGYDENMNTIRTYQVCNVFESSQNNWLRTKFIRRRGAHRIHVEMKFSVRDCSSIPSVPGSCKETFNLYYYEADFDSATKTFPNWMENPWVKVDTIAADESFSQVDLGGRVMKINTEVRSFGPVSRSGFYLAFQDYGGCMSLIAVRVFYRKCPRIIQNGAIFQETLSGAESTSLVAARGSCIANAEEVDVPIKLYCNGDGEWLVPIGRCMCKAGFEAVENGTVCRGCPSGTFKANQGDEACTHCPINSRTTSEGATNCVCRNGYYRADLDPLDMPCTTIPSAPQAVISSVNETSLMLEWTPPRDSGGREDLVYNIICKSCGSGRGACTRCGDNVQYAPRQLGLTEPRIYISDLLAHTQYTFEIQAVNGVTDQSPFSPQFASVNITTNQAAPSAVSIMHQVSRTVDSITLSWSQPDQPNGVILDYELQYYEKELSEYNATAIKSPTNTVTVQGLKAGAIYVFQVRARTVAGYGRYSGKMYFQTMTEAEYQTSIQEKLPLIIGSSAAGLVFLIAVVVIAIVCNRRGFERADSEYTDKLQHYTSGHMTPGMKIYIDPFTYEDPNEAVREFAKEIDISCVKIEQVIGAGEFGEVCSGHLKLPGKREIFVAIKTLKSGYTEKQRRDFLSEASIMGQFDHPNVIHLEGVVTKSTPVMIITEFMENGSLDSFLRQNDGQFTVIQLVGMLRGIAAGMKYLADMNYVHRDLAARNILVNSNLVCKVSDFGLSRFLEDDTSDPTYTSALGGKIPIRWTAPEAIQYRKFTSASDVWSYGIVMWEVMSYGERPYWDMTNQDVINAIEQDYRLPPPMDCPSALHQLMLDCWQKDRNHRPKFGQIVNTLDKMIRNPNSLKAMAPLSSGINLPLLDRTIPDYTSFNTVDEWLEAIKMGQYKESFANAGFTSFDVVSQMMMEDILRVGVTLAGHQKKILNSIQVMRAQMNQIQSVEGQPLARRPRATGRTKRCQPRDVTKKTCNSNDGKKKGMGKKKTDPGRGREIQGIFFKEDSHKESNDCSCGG

[2] = biological target: panel of more than 300 wild-type and mutant kinases (313 kinase panel) (Homo sapiens, UniProt Q08345)
[3] = biological target: T2, panel of more than 300 wild-type and mutant kinases (313 kinase panel) (Homo sapiens, UniProt Q99683)
T2 sequence (Q99683 1-1374): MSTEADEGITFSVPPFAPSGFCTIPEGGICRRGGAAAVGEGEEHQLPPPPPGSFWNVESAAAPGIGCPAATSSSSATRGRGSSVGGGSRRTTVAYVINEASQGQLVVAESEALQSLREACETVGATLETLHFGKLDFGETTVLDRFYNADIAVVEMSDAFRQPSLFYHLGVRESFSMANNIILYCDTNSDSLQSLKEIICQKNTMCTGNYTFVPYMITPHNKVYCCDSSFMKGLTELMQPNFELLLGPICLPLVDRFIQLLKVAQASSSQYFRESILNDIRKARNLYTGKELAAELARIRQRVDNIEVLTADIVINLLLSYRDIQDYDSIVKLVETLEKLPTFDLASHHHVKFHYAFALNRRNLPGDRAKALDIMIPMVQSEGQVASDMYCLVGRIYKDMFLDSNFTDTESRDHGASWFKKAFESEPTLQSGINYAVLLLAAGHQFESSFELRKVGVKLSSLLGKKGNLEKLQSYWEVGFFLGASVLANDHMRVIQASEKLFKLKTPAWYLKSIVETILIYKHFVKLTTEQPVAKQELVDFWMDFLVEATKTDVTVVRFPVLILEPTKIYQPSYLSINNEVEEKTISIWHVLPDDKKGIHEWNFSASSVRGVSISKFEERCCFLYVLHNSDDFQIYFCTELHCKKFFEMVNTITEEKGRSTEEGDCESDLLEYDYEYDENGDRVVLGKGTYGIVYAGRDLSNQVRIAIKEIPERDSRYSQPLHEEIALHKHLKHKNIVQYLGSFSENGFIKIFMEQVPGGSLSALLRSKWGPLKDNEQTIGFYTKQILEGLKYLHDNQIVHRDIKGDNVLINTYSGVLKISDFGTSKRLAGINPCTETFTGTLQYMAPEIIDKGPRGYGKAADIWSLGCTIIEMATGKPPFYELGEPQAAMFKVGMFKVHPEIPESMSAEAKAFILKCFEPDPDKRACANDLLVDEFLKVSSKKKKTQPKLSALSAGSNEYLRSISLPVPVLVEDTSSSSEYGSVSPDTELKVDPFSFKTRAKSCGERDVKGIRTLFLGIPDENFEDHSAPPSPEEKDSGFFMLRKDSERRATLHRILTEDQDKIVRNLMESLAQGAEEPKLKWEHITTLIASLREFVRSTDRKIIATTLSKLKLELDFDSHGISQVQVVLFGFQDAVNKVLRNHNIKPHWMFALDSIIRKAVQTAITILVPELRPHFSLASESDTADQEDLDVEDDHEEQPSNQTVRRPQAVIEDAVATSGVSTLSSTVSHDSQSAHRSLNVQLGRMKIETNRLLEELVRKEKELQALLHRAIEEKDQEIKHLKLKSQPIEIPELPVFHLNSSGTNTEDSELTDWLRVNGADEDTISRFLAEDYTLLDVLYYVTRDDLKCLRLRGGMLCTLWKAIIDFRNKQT

[4] = biological target: panel of more than 300 wild-type and mutant kinases (313 kinase panel) (Homo sapiens, UniProt Q9HCP0)
[5] = biological target: panel of more than 300 wild-type and mutant kinases (313 kinase panel) (Homo sapiens, UniProt P14616)
[6] = kinase MAP3K5, compound at 1 μM

panel of more than 300 wild-type and mutant kinases (313 kinase panel) (Homo sapiens, UniProt P14616), sequence (P14616 27-1297, change not shown): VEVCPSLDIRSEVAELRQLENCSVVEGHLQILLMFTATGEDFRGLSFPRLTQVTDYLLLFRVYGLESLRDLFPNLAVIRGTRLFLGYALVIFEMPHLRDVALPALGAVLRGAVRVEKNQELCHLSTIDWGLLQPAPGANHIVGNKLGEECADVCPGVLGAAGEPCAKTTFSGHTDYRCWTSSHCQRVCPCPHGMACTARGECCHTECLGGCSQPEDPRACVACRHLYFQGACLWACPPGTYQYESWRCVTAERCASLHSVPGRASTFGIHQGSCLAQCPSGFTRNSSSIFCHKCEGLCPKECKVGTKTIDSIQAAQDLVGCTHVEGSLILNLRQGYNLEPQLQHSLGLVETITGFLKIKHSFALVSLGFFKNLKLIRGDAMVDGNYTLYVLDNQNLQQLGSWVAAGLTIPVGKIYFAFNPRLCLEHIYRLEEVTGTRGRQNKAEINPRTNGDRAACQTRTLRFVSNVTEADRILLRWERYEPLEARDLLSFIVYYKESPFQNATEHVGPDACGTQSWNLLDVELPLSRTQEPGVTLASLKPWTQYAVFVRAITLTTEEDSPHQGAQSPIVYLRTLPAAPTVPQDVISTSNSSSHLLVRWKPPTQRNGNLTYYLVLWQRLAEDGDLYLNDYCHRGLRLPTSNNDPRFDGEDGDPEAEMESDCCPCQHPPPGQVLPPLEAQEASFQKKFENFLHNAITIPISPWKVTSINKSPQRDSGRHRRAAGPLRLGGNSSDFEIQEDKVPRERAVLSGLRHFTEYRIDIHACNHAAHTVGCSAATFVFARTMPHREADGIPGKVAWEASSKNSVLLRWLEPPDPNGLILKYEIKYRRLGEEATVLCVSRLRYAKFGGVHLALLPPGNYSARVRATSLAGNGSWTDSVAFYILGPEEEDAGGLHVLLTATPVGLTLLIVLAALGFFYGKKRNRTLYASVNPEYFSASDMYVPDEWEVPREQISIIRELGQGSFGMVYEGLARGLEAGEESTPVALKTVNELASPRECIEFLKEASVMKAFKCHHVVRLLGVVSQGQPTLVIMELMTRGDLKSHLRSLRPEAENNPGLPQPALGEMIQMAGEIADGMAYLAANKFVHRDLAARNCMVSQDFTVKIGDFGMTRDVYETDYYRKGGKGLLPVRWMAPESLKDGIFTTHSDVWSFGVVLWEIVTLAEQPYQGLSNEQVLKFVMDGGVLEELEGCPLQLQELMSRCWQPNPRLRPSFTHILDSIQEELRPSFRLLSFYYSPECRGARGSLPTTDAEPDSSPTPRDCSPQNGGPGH

SMILES	%-inhibition of EPHB2 ([1]; kinase EPHB2, compound at 1 μM) [%]	%-inhibition of DDR1 ([2]; kinase DDR1, compound at 1 μM) [%]	%-inhibition of MAP3K5 [3, 6] [%]	%-inhibition, CK1γ1 ([4]; kinase CK1γ1, 1 μM compound) [%]	%-inhibition of IRR ([5]; kinase IRR, compound at 1 μM) [%]	%-inhibition of IRR ([5]; 1 µM) [%]	%-inhibition of EPHB2 ([1]; 1 µM) [%]	%-inhibition of DDR1 ([2]; 1 µM) [%]	%-inhibition of MAP3K5 ([3]; 1 µM) [%]	%-inhibition, CK1γ1 ([4]; 1 µM) [%]
C[C@@H](Oc1cc(-c2cnn(C3CCNCC3)c2)cnc1N)c1c(Cl)ccc(F)c1Cl [crizotinib]	57	97	1.11	-3.52	–	–	–	–	–	–
CC(C)(C)c1nc(-c2cccc(NS(=O)(=O)c3c(F)cccc3F)c2F)c(-c2ccnc(N)n2)s1 [dabrafenib]	-3.38	96	–	–	10	–	–	–	–	–
COc1cc2c(Nc3ccc(Br)cc3F)ncnc2cc1OCC1CCN(C)CC1 [vandetanib]	96	100	8	-4.74	-3.23	–	–	–	–	–
O=S(=O)(c1cccc2cnccc12)N1CCCNCC1 [fasudil]	-7.43	-1.19	-15	-3	0.15	–	–	–	–	–
C#Cc1cccc(Nc2ncnc3cc(OCCOC)c(OCCOC)cc23)c1 [erlotinib]	–	–	–	–	–	-12	23	93	5	2.22
COc1cc2nccc(Oc3ccc(NC(=O)C4(C(=O)Nc5ccc(F)cc5)CC4)cc3)c2cc1OC [cabozantinib]	96	102	1.72	4.74	66	–	–	–	–	–
Cc1ccc(C(=O)Nc2ccc(CN3CCN(C)CC3)c(C(F)(F)F)c2)cc1C#Cc1cnc2cccnn12 [ponatinib]	102	–	–	-4	–	–	–	–	–	–
CCCS(=O)(=O)Nc1ccc(F)c(C(=O)c2c[nH]c3ncc(-c4ccc(Cl)cc4)cc23)c1F [vemurafenib]	-2.11	52	13	-2	21	–	–	–	–	–
CCN(CC)CCNC(=O)c1c(C)[nH]c(/C=C2\C(=O)Nc3ccc(F)cc32)c1C [sunitinib]	81	–	–	–	–	–	–	–	–	–
Cc1cn(-c2cc(NC(=O)c3ccc(C)c(Nc4nccc(-c5cccnc5)n4)c3)cc(C(F)(F)F)c2)cn1 [nilotinib]	85	103	-2.28	–	–	-0.717	–	–	–	-1
CS(=O)(=O)CCNCc1ccc(-c2ccc3ncnc(Nc4ccc(OCc5cccc(F)c5)c(Cl)c4)c3c2)o1 [lapatinib]	4.6	33	6	-8.54	-4	–	–	–	–	–
CNC(=O)c1cc(Oc2ccc(NC(=O)Nc3ccc(Cl)c(C(F)(F)F)c3)c(F)c2)ccn1 [regorafenib]	84	101	5	-8	-4	–	–	–	–	–
Cc1nc(Nc2ncc(C(=O)Nc3c(C)cccc3Cl)s2)cc(N2CCN(CCO)CC2)n1 [dasatinib]	–	–	-1.69	–	-16	–	–	–	–	–
Cc1ccc(Nc2nccc(N(C)c3ccc4c(C)n(C)nc4c3)n2)cc1S(N)(=O)=O [pazopanib]	16	97	18	-3	16	–	–	–	–	–
N#CC[C@H](C1CCCC1)n1cc(-c2ncnc3[nH]ccc23)cn1 [ruxolitinib]	5.54	–	6	-4	0.404	–	–	–	–	–
CO[C@H]1C[C@@H]2CC[C@@H](C)[C@@](O)(O2)C(=O)C(=O)N2CCCC[C@H]2C(=O)O[C@H]([C@H](C)C[C@@H]2CC[C@@H](OCCO)[C@H](OC)C2)CC(=O)[C@H](C)/C=C(\C)[C@@H](O)[C@@H](OC)C(=O)[C@H](C)C[C@H](C)/C=C/C=C/C=C/1C [everolimus]	-7	-2.76	2.56	-2.44	0.808	–	–	–	–	–
CC(=O)Nc1cccc(-n2c(=O)n(C3CC3)c(=O)c3c(Nc4ccc(I)cc4F)n(C)c(=O)c(C)c32)c1 [trametinib]	-8	-2	17	0.211	–	1.35	–	–	–	–
COc1cc(Nc2c(C#N)cnc3cc(OCCCN4CCN(C)CC4)c(OC)cc23)c(Cl)cc1Cl [bosutinib]	95	97	–	14	57	–	–	–	–	–
CO[C@H]1C[C@@H]2CC[C@@H](C)[C@@](O)(O2)C(=O)C(=O)N2CCCC[C@H]2C(=O)O[C@H]([C@H](C)C[C@@H]2CC[C@@H](OC(=O)C(C)(CO)CO)[C@H](OC)C2)CC(=O)[C@H](C)/C=C(\C)[C@@H](O)[C@@H](OC)C(=O)[C@H](C)C[C@H](C)/C=C/C=C/C=C/1C [temsirolimus]	-5.66	-5.36	2.79	-4.47	-13	–	–	–	–	–
